From patent US20090215710A1, “CARBOHYDRATE BASED TOLL-LIKE RECEPTOR (TLR) ANTAGONISTS” (RELIANCE LIFE SCIENCES PVT. LTD., priority 2007, published 2009)

Columns and labels:
TLR2 = molecular target: T1, TLR2 (Homo sapiens, UniProt O60603); test: TLR2 ligand induced TNF-α secretion in THP-1 cells and PBMCs (ELISA); format: cell-based; conditions: TLR2 ligand 75 ng/ml, 1 hr pre-treatment, 24 hrs
T1 construct: endogenous in cells; host or cells: THP-1 monocytes and PBMCs
Procedure: (§1) The present invention has checked the effect of various TLR ligands on THP-1 monocytes, PBMCs and their ability to activate and release TNF-α. For this purpose about 9 TLR ligands were used. These ligands were obtained from Apotech Cat; APO-54N-018-K100 and assayed for TNF-α release in culture supernatants.
(§2) THP-1 and PBMCs (2×10^5 cells/well) were plated in 96-well plate. The cells were pretreated with RSCL-0409 in DMSO 1 hr prior to TLR ligand treatment. Following 1 hr pre-treatment, the cells were treated with TLR ligands [TLR2, TLR5 and TLR6-75 ng/ml each, TLR3-75 μg/ml, TLR4-750 ng/ml, TLR7, TLR8 and TLR9-7.5 μg/ml) for 24 hrs. The culture supernatant were collected after the stipulated time and assayed for TNF-α release using a Duoset Enzyme-Linked ImmunoSorbent Assay (ELISA) detection Kit (R&D systems, MN 55413, USA; Cat: DY-210 E). Simultaneously supernatants were collected from cells treated with ligands without pre-treatment with RSCL-0409 and only RSCL-0409 without ligand treatment.

TLR4 = molecular target: T2, TLR4 (Homo sapiens, UniProt O00206); test: TLR4 ligand induced TNF-α secretion in THP-1 cells and PBMCs (ELISA); format: cell-based; conditions: TLR4 ligand 750 ng/ml, 1 hr pre-treatment, 24 hrs
T2 construct: endogenous in cells; host or cells: THP-1 monocytes and PBMCs
T2 sequence (O00206 24-839): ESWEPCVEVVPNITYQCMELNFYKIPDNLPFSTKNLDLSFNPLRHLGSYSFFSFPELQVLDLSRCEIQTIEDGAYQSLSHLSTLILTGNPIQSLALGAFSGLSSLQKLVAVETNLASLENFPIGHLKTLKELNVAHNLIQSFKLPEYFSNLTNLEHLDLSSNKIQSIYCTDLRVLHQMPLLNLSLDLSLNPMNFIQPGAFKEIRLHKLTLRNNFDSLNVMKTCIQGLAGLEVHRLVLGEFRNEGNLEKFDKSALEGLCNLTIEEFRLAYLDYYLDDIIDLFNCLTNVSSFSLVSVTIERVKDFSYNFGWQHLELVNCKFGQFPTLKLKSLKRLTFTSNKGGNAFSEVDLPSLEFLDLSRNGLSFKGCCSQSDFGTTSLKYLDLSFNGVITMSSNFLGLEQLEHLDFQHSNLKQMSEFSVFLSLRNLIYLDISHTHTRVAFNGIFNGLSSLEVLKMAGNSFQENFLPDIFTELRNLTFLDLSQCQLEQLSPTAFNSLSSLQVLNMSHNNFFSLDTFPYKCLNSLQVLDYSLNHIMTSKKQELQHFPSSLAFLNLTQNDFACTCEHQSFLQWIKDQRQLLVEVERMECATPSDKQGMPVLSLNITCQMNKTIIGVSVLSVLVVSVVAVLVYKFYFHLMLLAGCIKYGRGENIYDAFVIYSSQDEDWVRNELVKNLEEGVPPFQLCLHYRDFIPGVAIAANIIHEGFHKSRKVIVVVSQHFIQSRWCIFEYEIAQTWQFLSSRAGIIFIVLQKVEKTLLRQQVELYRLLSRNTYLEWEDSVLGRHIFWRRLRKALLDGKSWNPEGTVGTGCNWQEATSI
T2 sequence (Q9Y6Y9 17-160 partner limits assumed): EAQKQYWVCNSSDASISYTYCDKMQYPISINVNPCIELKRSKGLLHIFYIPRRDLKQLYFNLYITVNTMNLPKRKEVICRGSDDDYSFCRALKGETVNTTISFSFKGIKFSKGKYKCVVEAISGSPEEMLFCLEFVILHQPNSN
Procedure: as §1, §2

TNF-α = test: LPS induced TNF-α secretion in THP-1 monocytes, dose dependence (ELISA); format: cell-based, human; conditions: THP-1, LPS 250 ng/ml, 100, 50, 10 and 1 μM, 24 hr
Procedure: To confirm whether the inhibitory effect of RSCL-0409 is dose-dependent, the present invention has studied the ability of RSCL-0409 to inhibit TNF-α secretion from LPS (250 ng/ml) induced THP-1 monocytes (FIG. 2a).
THP-1, 2×10^5 cells/well was plated in 96-well plate. The cells were pretreated with RSCL-0409 at various concentrations (100 μM, 50 μM, 10 μM and 1 μM) 1 hr prior to LPS stimulation. As a control group, cells were treated with LPS alone and cells treated with RSCL-0409 alone were used. TNF-α secretion was estimated in the culture supernatants following 24 hr LPS stimulation using Duoset ELISA detection Kit (R&D systems, MN, USA). *P<0.05, ***P<0.001 values are comparisons for LPS treated vs. RSCL-0409 treated, NS indicates not significant.

THP-1 cells = test: MTT toxicity assay in THP-1 cells; format: cell-based, human
Source text: The toxicity of RSCL-0409 (FIG. 2b) was also by treating cells with RSCL-0409 by MTT assay. […] The viability of the cells (analyzed in tandem by MTT) was not affected by RSCL-0409 indicating its non-toxic nature.

IL-6 mRNA = IL-6 mRNA expression in LPS stimulated THP-1 cells (real-time PCR); format: cell-based, human; conditions: THP-1, LPS 250 ng/ml 1 hr
Procedure: To determine whether the suppressive effect of RSCL-0409 on the cytokine production occurs at mRNA expression level, quantitative real-time PCR was used to examine TNF-α and IL-6 mRNA expression in THP-1 cells stimulated with LPS. THP-1 cells (3×10^6 cells/well) were stimulated with 250 ng/ml LPS in the presence or absence of RSCL-0409 at indicated concentrations for the 1 hr. Total RNA was isolated from these cells and cDNA was synthesized. LPS treated cells acted as positive control. All quantitative real-time PCR (TaqMan™) primers and probes were obtained from Applied Biosystems (ABI), Weiterstadt, Germany. For detection of TNF-α, pre-developed assay reagents (Universal master mix as obtained from Applied Biosystems included all reagents including Taq-polymerase apart from specific primers and probes) were used. The PCR was performed utilizing 1 μl cDNA per reaction in triplicates of 25 μl volume on an ABI 7500 Realtime PCR machine using a 2-step PCR protocol.
Quantization of mRNA was performed using the comparative threshold cycle method and analysed using standard software and expressed in fold change. The fold change of TNF-α (FIG. 5a) and IL-6 (FIG. 5b) mRNA in treated cells over control was obtained after correction for the amount of β-actin. […] The expression levels of both TNF and IL-6 decreased following 1 hr pretreatment with RSCL-0409 in the presence of LPS. […]

NEMO and IκB-α = test: Immunoblot of NEMO and IκB-α in LPS stimulated THP-1 cells; format: cell-based, human; conditions: THP-1, LPS 250 ng/ml
Procedure: NF-κB/IκB complexes are present in the cytoplasm under unstimulated conditions. Following stimulation with LPS, we see phosphorylation and subsequent degradation of IκB allowing the free NF-κB to translocate into the nucleus to activate genes with NF-κB binding regions. Therefore, the effect of RSCL-0409 on blocking of NF-κB nuclear translocation was checked. Serum-starved THP-1 cells were stimulated with LPS (250 ng/ml) for the indicated time (FIG. 7a) in the presence and absence of RSCL-0409 ([…]). RSCL-0409 treatment was 1 hr prior to LPS treatment. Total protein was isolated from the treated cells, and an equal amount of protein from each sample was used for immunoblots to determine protein levels of NEMO and IκB-α. The blot was stripped and reprobed with an anti-ERK-1/2 antibody to ensure equal loading. […] This leads to inhibition of phosphorylation and further blocking p65 dissociation from IκB-α.

[1] = tested on: TLR related genes (TIRAP, IRAK1, IRAK4, TRAF6, TRIF); test: mRNA expression of TLR related genes in LPS stimulated THP-1 cells (PCR); format: cell-based, human; conditions: THP-1, LPS 250 ng/ml 1 hr
Procedure: Serum-starved THP-1 cells were stimulated with LPS (250 ng/ml) for 1 hr in the presence and absence of RSCL-0409. Total RNA was isolated from treated cells post LPS exposure. The cDNA was used for PCR against specific primers for the TLR related genes and β-actin was used as internal control.
To rule out the possibility of a TRIF dependent pathway, a MyD88 independent path, we have checked its expression levels also in the treated cells.

Balb/c mice = test: LPS induced TNF-α release in Balb/c mice, treatment post LPS; format: in vivo; conditions: 30 min post LPS (225 μg i.p.)
Procedure: Here we have stimulated the inflammation process in mice with an injection of LPS (225 μg) intraperitoneally and 30 min post LPS, we have challenged the ability of RSCL-0409 (10 mg/kg, 20 mg/kg) to inhibit the TNF-α secretion.

T1 sequence (O60603 21-784): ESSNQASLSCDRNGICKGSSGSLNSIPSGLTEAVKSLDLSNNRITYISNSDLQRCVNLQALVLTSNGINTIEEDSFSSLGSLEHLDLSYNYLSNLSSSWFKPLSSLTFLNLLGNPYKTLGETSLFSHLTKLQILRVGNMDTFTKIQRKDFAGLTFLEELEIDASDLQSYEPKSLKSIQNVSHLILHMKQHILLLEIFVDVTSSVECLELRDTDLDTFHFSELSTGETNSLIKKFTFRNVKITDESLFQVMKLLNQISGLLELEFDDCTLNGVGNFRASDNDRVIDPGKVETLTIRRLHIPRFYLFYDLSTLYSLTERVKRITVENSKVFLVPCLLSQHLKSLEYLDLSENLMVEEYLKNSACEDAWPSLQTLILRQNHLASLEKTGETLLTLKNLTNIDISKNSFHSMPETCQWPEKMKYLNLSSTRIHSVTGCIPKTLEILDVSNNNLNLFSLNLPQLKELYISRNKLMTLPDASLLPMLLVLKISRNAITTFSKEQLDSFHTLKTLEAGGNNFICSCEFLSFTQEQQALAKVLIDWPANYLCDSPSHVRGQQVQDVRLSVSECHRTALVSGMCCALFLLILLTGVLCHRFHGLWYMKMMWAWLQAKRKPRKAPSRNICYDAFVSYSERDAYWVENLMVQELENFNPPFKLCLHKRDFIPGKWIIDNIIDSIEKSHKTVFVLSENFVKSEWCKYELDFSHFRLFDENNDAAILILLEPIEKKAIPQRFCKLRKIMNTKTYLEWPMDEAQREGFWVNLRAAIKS

inhibition of TNF-α secretion (TLR2; PBMC): ~46%
inhibition of TNF-α secretion (TLR2; THP-1 cells): ~54%
inhibition of TNF-α secretion (TLR4; PBMCs): ~34%
inhibition of TNF-α secretion (TLR4; THP-1 cells): ~100%
SMILES: COc1ccc(OC2OC3COC(c4ccccc4)OC3C(OC3OC(COC(=O)CCC(C)=O)C(OC(=O)CCl)C(OC(C)=O)C3OC(C)=O)C2NC(=O)C(Cl)(Cl)Cl)cc1 [RSCL-0409, p-Methoxy phenyl-O-(2,3-di-O-acetyl-4-O-chloroacetyl-6-O-levulinoyl-β-D-glucopyranosyl)-(1-3)-2-deoxy-2-trichloroacetamido-4,6-O-benzylidene-α-D-glucopyranoside]
LPS induced TNF-α secretion (TNF-α): inhibited by RSCL-0409 in a concentration dependent manner
viability of the cells (MTT) (THP-1 cells): not affected
IL-6 mRNA expression (IL-6 mRNA): The same was observed with IL-6 also in a concentration dependent manner
activation of NEMO (NEMO and IκB-α): blocked signaling to NEMO
degradation of IκB-α (NEMO and IκB-α): accumulation of IκB-α
TRIF mRNA levels [1]: remained unaffected
expression level of TRAF6 [1]: not down regulated significantly
mRNA expression levels of TIRAP, IRAK1 and IRAK4 [1]: inhibits the mRNA expression levels of TIRAP, IL-1R-associated kinase1 (IRAK1) and IRAK4
inhibition of TNF secretion (Balb/c mice; 10 mg/kg): ~39%
inhibition of TNF secretion (Balb/c mice; 20 mg/kg): ~47%
